# Experimental data: patent US20190125826A1, “METHODS AND PHARMACEUTICAL COMPOSITION FOR THE TREATMENT OF INFLAMMATORY SKIN DISEASES ASSOCIATED WITH DESMOGLEIN-1 DEFICIENCY” (INSERM (INSTITUT NATIONAL DE LA SANTÉ ET DE LA MÉDICALE), priority 2016, published 2019)
# Molecular target: T1, IKK-2 (Homo sapiens, UniProt O14920)
# T1 construct: endogenous in cells; host or cells: primary keratinocytes from a healthy control and from Patient#1
# T1 sequence (O14920 1-756): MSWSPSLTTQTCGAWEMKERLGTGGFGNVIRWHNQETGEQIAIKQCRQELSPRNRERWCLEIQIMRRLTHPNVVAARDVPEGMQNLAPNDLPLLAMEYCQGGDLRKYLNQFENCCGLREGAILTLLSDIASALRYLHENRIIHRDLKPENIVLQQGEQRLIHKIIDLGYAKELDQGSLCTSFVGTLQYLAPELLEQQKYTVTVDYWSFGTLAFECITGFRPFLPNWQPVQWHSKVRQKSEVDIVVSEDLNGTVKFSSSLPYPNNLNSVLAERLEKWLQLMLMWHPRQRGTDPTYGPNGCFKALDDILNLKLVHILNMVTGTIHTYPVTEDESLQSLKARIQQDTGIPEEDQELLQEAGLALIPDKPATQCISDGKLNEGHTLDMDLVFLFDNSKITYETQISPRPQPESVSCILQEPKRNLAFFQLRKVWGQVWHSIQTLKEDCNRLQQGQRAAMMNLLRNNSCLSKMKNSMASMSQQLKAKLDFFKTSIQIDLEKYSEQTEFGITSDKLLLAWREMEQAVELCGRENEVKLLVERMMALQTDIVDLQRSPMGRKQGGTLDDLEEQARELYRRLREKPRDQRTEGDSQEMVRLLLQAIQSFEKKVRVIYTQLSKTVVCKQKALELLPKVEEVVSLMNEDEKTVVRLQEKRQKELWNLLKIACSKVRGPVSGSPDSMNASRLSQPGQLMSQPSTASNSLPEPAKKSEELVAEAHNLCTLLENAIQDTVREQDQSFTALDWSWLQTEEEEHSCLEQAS
# Assay: Inhibition of IKK-2 by ML120B in keratinocytes (IL8 mRNA by RT-qPCR)
# Type: cell-based
# Conditions: Patient#1 keratinocytes; ML120B 20 μM preincubated 1 h, then 10 ng/ml IL-1β, 24 h
# Procedure: Total RNAs were isolated from cultured keratinocytes, HEK293T cells and frozen skin biopsies from the two patients and controls using the RNeasy Plus Minikit (Qiagen GmbH, Hilden, Germany), according to the manufacturer's instructions. RNA samples were reverse-transcribed into cDNA using the High Capacity cDNA Reverse Transcriptase Kit (Applied Biosystems, Foster City, Calif., USA). Real-time PCR was carried out using the Fast SYBR Green PCR Master Mix (PE Applied Biosystems) on an ABI prism 7000 (PE Applied Biosystems). RT-qPCR primers were designed using the sequences available in Ensembl and spanned an intron-exon boundary. The amounts of the various mRNAs were normalized against the amount of beta actin RNA measured by RT-qPCR in each sample. The results were analyzed with DataAssist® (version 3.01, Applied Biosystems), which uses the comparative Ct (ddCt) method.
# Keratinocytes from a healthy control and from Patient#1 were seeded into 12-well plates (100 000 cells/well). 24 hours later, keratinocytes were preincubated with ML120B 20 μM at 37° C. for 1 h and then stimulated with 10 ng/ml IL-1β. 24 hours after the stimulation, the cells were pelleted for RNA extraction. ML120B was sent as a gift by Emmanuel Laplantine (Institut Pasteur, Paris, France).
smiles,measurement,value
COc1c(Cl)cc2c([nH]c3cnccc32)c1NC(=O)c1cccnc1C [ML120B],production of IL8,restored the normal production of IL8
